We go through 70 compounds from US20080280933A1, “BENZIMIDAZOLYL COMPOUNDS” (priority 2006, published 2008).

Bounds are passed on as bounds.

The target of the first test is T1, mGluR2 receptor (metabotropic glutamate receptor 2) (Homo sapiens, UniProt Q14416).
T1 construct: expressed in transfected cells
T1 sequence (Q14416 19-872, species assumed): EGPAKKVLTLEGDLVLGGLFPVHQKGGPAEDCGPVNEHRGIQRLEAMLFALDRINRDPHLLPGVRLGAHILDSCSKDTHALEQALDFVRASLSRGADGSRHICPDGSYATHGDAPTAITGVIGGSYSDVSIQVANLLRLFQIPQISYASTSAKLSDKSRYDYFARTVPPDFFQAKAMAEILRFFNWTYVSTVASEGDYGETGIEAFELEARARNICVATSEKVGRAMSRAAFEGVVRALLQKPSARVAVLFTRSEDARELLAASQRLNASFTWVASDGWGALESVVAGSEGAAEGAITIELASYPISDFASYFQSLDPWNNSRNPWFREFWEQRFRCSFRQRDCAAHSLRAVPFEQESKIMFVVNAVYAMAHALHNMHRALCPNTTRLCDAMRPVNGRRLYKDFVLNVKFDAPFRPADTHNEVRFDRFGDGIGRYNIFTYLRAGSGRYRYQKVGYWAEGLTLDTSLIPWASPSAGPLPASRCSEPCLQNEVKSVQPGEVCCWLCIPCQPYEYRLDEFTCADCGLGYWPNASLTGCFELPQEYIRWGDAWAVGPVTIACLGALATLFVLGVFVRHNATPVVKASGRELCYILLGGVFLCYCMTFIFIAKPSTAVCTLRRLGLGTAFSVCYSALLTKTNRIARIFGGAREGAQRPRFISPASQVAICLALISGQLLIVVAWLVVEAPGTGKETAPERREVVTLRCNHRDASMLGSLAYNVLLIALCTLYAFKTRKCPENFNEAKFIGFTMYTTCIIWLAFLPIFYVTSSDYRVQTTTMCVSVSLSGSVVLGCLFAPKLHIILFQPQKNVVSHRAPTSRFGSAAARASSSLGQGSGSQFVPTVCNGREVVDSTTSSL
Put plainly: mGluR2 Potentiator Screen, FLIPR, EC10-EC20 glutamate challenge. The test is classed as cell-based. The note with it: listed as 11; read-out: EC50. The essentials:
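HEK cells stably co-expressing mGluR2 and Gα15, kept glutamine-free overnight, were loaded with Fluo-4 plus probenecid and GPT/pyruvate. Compounds (top 10 μM) were added ≥30 min before an EC10–EC20 glutamate challenge. Peak FLIPR fluorescence ratios were curve-fitted, excluding points above maximal effect, with maxima from on-plate standards.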
The EC50 is the midpoint of the concentration-response curve. For “Methyl 2-((4-(2-methoxyphenyl)piperidin-1-yl)methyl)-1-methyl-1H-benzo[d]imidazole-5-carboxylate [Entry 296]”, the EC50 was 3640 nM.

Still in this test, the particulars now being: mGluR2 potentiator screen, Table 7; read-out: EC50.
As to `CC1(COc2ccc(Cl)cc2C2CCN(Cc3nc4ccccc4n3CCF)CC2)COC1` [compound 212], the EC50 was 10500 nM.

Regarding `Cn1c(CN2CC[C@@H]3c4ccccc4CC[C@@H]3C2)nc2c(Br)cccc21` [compound 168], the EC50 turned out to be 1200 nM.

In the case of `Cn1c(CN2CCC(c3ccccc3)C2)nc2ccccc21` (centres unmarked) [compound 151], the EC50 was determined as 4100 nM.

With `CCOc1ccc(Cl)cc1C1CCN(Cc2nc3ccccc3n2C)CC1` [compound 224], the EC50 is 4260 nM.

On to `FCn1c(CN2CCC(c3cc(Cl)ccc3OCCC3CC3)CC2)nc2ccccc21` [compound 188], for which the EC50 amounted to 566 nM.

Consider `CCCCOc1ccc(Cl)cc1C1CCN(Cc2nc3ccccc3n2CCOC)CC1` [compound 184], for which the EC50 turned out to be 479 nM.

For `CC1CC1COc1ccc(Cl)cc1C1CCN(Cc2nc3ccccc3n2C)CC1` (centres unmarked) [compound 199], the EC50 came out at 390 nM.

As for `Clc1ccc(OCC2CCOC2)c(C2CCN(Cc3nc4ccccc4n3C3CC3)CC2)c1` (centres unmarked) [compound 202], the EC50 stood at 2880 nM.

Consider `CC(C)COc1ccc(Cl)cc1C1CCN(Cc2nc3ccccc3n2C2CC2)CC1` [compound 179], for which the EC50 was determined as 1740 nM.

Consider `CCCOc1ccc(Cl)cc1C1CCN(Cc2nc3ccccc3n2CCOC)CC1` [compound 223], for which the EC50 was 233 nM.

With `COc1ccc(OC)c(C2CCN(Cc3nc4ccccc4n3C)C2)c1` (centres unmarked) [compound 154], the EC50 is 285 nM.

`Cn1c(CN2CCC(c3ccccc3F)CC2)nc2c(Br)cccc21` [compound 157]: the EC50 is 836 nM.

The test is the same for the next values; noted with them: read-out: EC50.
On to `Cc1cc(C(=O)N2CC3(CCN(Cc4nc5ccccc5n4C)CC3)c3ccccc32)n(C)n1` [compound 53], for which the EC50 is greater than 6290 nM.

As to `Cn1c(CN2CCC(F)(c3ccc(F)cc3)CC2)nc2ccccc21` [compound 434], the EC50 came out at 308 nM.

For the compound `C#CCOc1ccc(Cl)cc1C1CCN(Cc2nc3ccccc3n2C)CC1` [compound 238], the EC50 turned out to be 78.1 nM.

Take `Cn1c(CN2CCC(c3ccc(F)cc3)CC2)nc2cccc(F)c21` [compound 342]: the EC50 was 55.2 nM.

Take `COCn1c(CN2CCC(c3ccc(F)cc3)CC2)nc2ccccc21` [compound 365]: the EC50 was found to be 1670 nM.

With `COc1cc(F)ccc1C1CCN(Cc2nc3ccccc3n2C)CC1` [compound 409], the EC50 is 63.4 nM.

Take `COc1ccc(C(F)(F)F)cc1C1CCN(Cc2nc3cc(C#N)ccc3n2C)CC1` [compound 388]: the EC50 was 583 nM.

Regarding `Cn1c(CN2CC[C@@H]3c4ccccc4OC[C@H]3C2)nc2ccccc21` [compound 470], the EC50 came out at 1520 nM.

As to `Cn1c(CN2CCC(c3ccc(C(F)(F)F)cc3F)CC2)nc2cc(F)ccc21` [compound 353], the EC50 is less than 40.2 nM.

Consider `Fc1ccc(C(F)(F)F)cc1C1CCN(Cc2nc3ccccc3n2C2CC2)CC1` [compound 327], for which the EC50 stood at 1980 nM.

Take `Cc1nnsc1C(=O)N1CC2(CCN(Cc3nc4ccccc4n3C)CC2)c2cc(Cl)ccc21` [compound 25]: the EC50 worked out at 1350 nM.

Consider `COc1ccccc1C1CCCN(Cc2nc3ccccc3n2C)CC1` (centres unmarked) [compound 304], for which the EC50 turned out to be 276 nM.

As for `CCc1ccc(C2CCN(Cc3nc4ccccc4n3C)CC2)cc1` [compound 426], the EC50 is 89.2 nM.

For the compound `COc1ccccc1C1CCN(Cc2nc3ccccc3n2C2CC2)CC1` [compound 244], the EC50 was 484 nM.

On to `Cn1c(CN2CCC(c3ccc(C(F)(F)F)cc3)C(F)C2)nc2cccc(F)c21` (centres unmarked) [compound 445], for which the EC50 was determined as 137 nM.

Consider `C[C@@H]1CN(Cc2nc3ccccc3n2C)CC[C@]1(C)c1cccc(NS(C)(=O)=O)c1` [compound 80], for which the EC50 was greater than 1250 nM.

As to `COC(=O)c1cccc([C@]2(C)CCN(Cc3nc4ccccc4n3C)C[C@@H]2C)c1` [compound 81], the EC50 was 6080 nM.

Take `Cn1c(CN2CCC3(CC2)CN(CC(C)(C)C)c2ccccc23)nc2ccccc21` [compound 111]: the EC50 worked out at 10300 nM.

For the compound `COCCn1c(CN2CCC(c3ccc(F)cc3)CC2)nc2ccccc21` [compound 367], the EC50 turned out to be 905 nM.

`Cc1cccc(NC(=O)c2cccc(C3CCN(Cc4nc5ccccc5n4C)CC3)c2)n1` [compound 435]: the EC50 amounted to 3300 nM.

With `Cn1c(CN2CCC(c3ccccc3)CCC2=O)nc2ccccc21` (centres unmarked) [compound 289], the EC50 was greater than 9880 nM.

With `Cc1ccc(C2CCN(Cc3nc4ccccc4n3C)CC2)cc1C` [compound 315], the EC50 is 308 nM.

With `Cn1c(CN2CCC(c3cccc(C(F)(F)F)c3)CC2)nc2cc(C#N)ccc21` [compound 389], the EC50 is 285 nM.

Consider `COc1cc(C(F)(F)F)ccc1C1CCN(Cc2nc3ccccc3n2C)CC1` [compound 355], for which the EC50 was 66.7 nM.

`CC(=O)N1CC2(CCN(Cc3nc4ccccc4n3C)CC2)c2cc(F)ccc21` [compound 19]: the EC50 was found to be 4790 nM.

For `COCCn1c(CN2CC[C@H](c3ccccc3OC)[C@H](C)C2)nc2ccccc21` (relative stereo) [compound 336], the EC50 worked out at 2360 nM.

Regarding `Cn1c(CN2CCC(c3ccccc3OCCc3ccccn3)CC2)nc2ccccc21` [compound 97], the EC50 was greater than 9640 nM.

Consider `C[C@@H]1CN(Cc2nc3ccccc3n2C)CC[C@@H]1c1ccc(Cl)cc1F` (relative stereo) [compound 461], for which the EC50 worked out at 30.3 nM.

For `COc1ccccc1C1CCC(=O)N(Cc2nc3ccccc3n2C)CC1` (centres unmarked) [Entry 291, 5-(2-Methoxy-phenyl)-1-(1-methyl-1H-benzoimidazol-2-ylmethyl)-azepan-2-one], the EC50 was determined as 4660 nM.

Take `Cn1c(CN2CCC(c3ccccc3C(F)(F)F)CC2)nc2cc(C#N)ccc21` [compound 403]: the EC50 is 224 nM.

`Cn1c(CN2CCC3(CC2)CN(C(=O)c2ccsc2)c2ccccc23)nc2ccccc21` [compound 49]: the EC50 was 1200 nM.

Regarding `Cn1c(CN2CCC(c3ccccc3C(F)(F)F)CC2)nc2ccccc21` [compound 257], the EC50 was 109 nM.

`Cn1c(CN2CCC3(CC2)CN(C(=O)c2cccc(C#N)c2)c2ccccc23)nc2ccccc21` [compound 55]: the EC50 was 3010 nM.

For `Cc1ccc2c(c1)C1(CCN(Cc3nc4ccccc4n3C)CC1)CN2C(=O)C(C)C` [compound 24], the EC50 was 1620 nM.

With `COc1ccccc1C1CCN(Cc2nc3c(F)cccc3n2C)CC1` [compound 271], the EC50 came to 21.1 nM.

In the case of `Cn1c(CN2CCC3(CC2)CN(CC2CCCO2)c2ccc(Cl)cc23)nc2ccccc21` (centres unmarked) [compound 107], the EC50 was found to be 6650 nM.

Turning to `CCN1CC2(CCN(Cc3nc4ccccc4n3C)CC2)c2cc(Cl)ccc21` [compound 105], the EC50 is 3370 nM.

`C[C@@H]1CN(Cc2ccc(C3CCN(Cc4nc5ccccc5n4C)CC3)cc2)C[C@H](C)O1` [compound 455]: the EC50 amounted to 2590 nM.

Regarding `Cn1c(CN2CCC(c3ccc(C(F)(F)F)cc3)CC2)nc2cc(F)c(F)cc21` [compound 260], the EC50 amounted to 422 nM.

Take `CC(=O)N1CC2(CCN(Cc3nc4ccccc4n3C)CC2)c2cc(C)ccc21` [compound 22]: the EC50 turned out to be 3830 nM.

In the case of `C[C@H]1C[C@@H](c2ccc(C(F)(F)F)cc2)CCN1Cc1nc2ccccc2n1C` (relative stereo) [compound 457], the EC50 was found to be 454 nM.

For “2-((4-(2-Fluorophenyl)piperidin-1-yl)methyl)-1-methyl-1H-benzo[d]imidazol-5-carboxamide [Entry 363]”, the EC50 came out at 5210 nM.

As for `CCOc1ccc(Cl)cc1C1CCN(Cc2nc3ccccc3n2C2CC2)CC1` [compound 225], the EC50 came to 999 nM.

On to “Methyl 2-((4-(2-methoxyphenyl)piperidin-1-yl)methyl)-1-methyl-1H-benzo[d]imidazole-5-carboxylate [Entry 296]”, for which the EC50 is 414 nM.

As to `CCOC(=O)CCC(=O)N1CC2(CCN(Cc3nc4ccccc4n3C)CC2)c2cc(C)ccc21` [compound 33], the EC50 is 1350 nM.

For `FCCn1c(CN2CCC(c3ccc(C(F)(F)F)cc3)CC2)nc2ccccc21` [compound 242], the EC50 was 301 nM.

On to `Cn1c(CN2CCC(c3ccccc3F)CC2)nc2ccccc21` [compound 79], for which the EC50 was found to be 21 nM.

Regarding “4-Fluoro-2-((4-(2-Fluorophenyl)piperidin-1-yl)methyl)-1-methyl-1H-benzo[d]imidazole [Entry 325]”, the EC50 is 97.9 nM.

For the compound “5-(2-Methoxy-phenyl)-1-(1-methyl-1H-benzoimidazol-2-ylmethyl)-azepan-2-one [Entry 291]”, the EC50 is 916 nM.

In the case of `Cn1c(CN2CCCC(c3ccccc3)CC2)nc2ccccc21` (centres unmarked) [compound 305], the EC50 was 235 nM.

On to `Cn1c(CN2CCC(F)(c3ccc(F)cc3)CC2)nc2cccc(F)c21` [compound 439], for which the concentration for a half-maximal effect (EC50) came out at 460 nM.

For `CC(C)OCCOc1ccccc1C1CCN(Cc2nc3ccccc3n2C)CC1` [compound 87], the EC50 was found to be 621 nM.

For the compound `C[C@@H]1CN(Cc2nc3ccccc3n2C)CC[C@@H]1c1ccc(F)cc1F` (relative stereo) [compound 463], the EC50 came out at 40.7 nM.

For the compound `COc1cc(F)ccc1C1CCN(Cc2nc3cc(F)ccc3n2C)CC1` [compound 408], the EC50 amounted to 67.2 nM.

In the case of `Cn1c(CN2CCC(c3ccccc3C#N)CC2)nc2ccccc21` [compound 416], the EC50 came to 168 nM.

Consider `Cn1c(CN2CCC(c3ccc(Cl)cc3F)CC2)nc2cc(F)ccc21` [compound 458], for which the EC50 stood at 41.9 nM.

Turning to `COc1cccc(C2CCN(Cc3nc4cc(F)ccc4n3C)CC2)c1` [compound 378], the EC50 turned out to be 568 nM.

As for `Cn1c(CN2CCC(c3ccccc3F)CC2)nc2cccc(C#N)c21` [compound 307], the EC50 stood at 31.4 nM.
